Among the data in patent publication US5786460A (Cheil Foods & Chemicals, Inc., priority 1993, dated 1998) are MIC values, retold here.

Test in all cases: in vitro antifungal activity, twofold agar dilution method
Common to all, as to assay type: cell-based
In general terms: In agar dilution the substance is mixed into plates at graded concentrations.

Experiment [1] relates to Candida albicans. The conditions noted are these: KCTC1940, KCTC No 1940, potato dextrose agar.
Description: (§1) The activities were determined by the twofold agar dilution method on potato dextrose agar medium.
For experiment [2], the system named is Candida albicans. The following applies: KCTC38245.
Description: as §1
The subject of the next experiment is Candida glabrata. The following applies: Nakaseomyces glabratus, KCTC1714; KCTC No 1714; potato dextrose agar.
A further experiment relates to Cryptococcus neoformans. The following applies: KCTC1197, KCTC No 1197, potato dextrose agar.
A further experiment concerns Saccharomyces cerevisiae. The conditions noted are these: KCTC1213, KCTC No 1213, potato dextrose agar.
For the next experiment, the system named is Aspergillus niger. The following applies: KCTC2119, KCTC No 2119, potato dextrose agar.
A further experiment deals with Microsporum gypseum. The following applies: Nannizzia gypsea, KCTC1252; KCTC No 1252; potato dextrose agar.
A further experiment deals with Microsporum canis. The following applies: KCTC11621, KCTC No 11621, potato dextrose agar.
A further experiment deals with Epidennophyton floccosum.
Experiment [3] concerns Trichophyton mentagrophyte. The following applies: KCTC6085, KCTC No 6085, potato dextrose agar.
Description: as §1
In the next experiment the test system is Trichophyton rubrum. The following applies: KCTC38484, KCTC No 38484, potato dextrose agar.
A further experiment relates to Fusarium oxysporum. The following applies: KCTC6084, KCTC No 6084, potato dextrose agar.
A further experiment concerns Rhizopus stolonifer. The following applies: KCTC6062, KCTC No 6062, potato dextrose agar.

Molecules are shown by their SMILES. Converted amounts (≈) assume the structure as drawn.

Description for Aspergillus niger: as §1
Description for Candida glabrata: as §1
Description for Cryptococcus neoformans: as §1
Description for Epidennophyton floccosum: as §1
Description for Fusarium oxysporum: as §1
Description for Microsporum canis: as §1
Description for Microsporum gypseum: as §1
Description for Rhizopus stolonifer: as §1
Description for Saccharomyces cerevisiae: as §1
Description for Trichophyton rubrum: as §1

A word on the MIC: it is the lowest concentration that inhibits growth of the organism. A higher MIC goes with a need for much substance. As for `C[C@@H]1[C@H](O)[C@@H](C)/C=C/C=C/C=C/C=C/C=C/C=C/C=C/[C@H](O[C@@H]2O[C@H](C)[C@@H](O)[C@H](N)[C@@H]2O)C[C@@H]2O[C@](O)(C[C@@H](O)C[C@@H](O)[C@H](O)CC[C@@H](O)C[C@@H](O)CC(=O)O[C@H]1C)C[C@H](O)[C@H]2C(=O)O` [Amphotericin-B], the minimum inhibitory concentration (MIC) in the experiment with Candida albicans [1] was determined as 0.782 µg/mL (≈ 0.846 µM); with Candida albicans [2], 0.782 µg/mL (≈ 0.846 µM); against Candida glabrata, 0.196 µg/mL (≈ 0.212 µM); against Cryptococcus neoformans it was 0.098 µg/mL (≈ 0.106 µM); in the experiment with Saccharomyces cerevisiae it was 0.098 µg/mL (≈ 0.106 µM); against Aspergillus niger, 0.196 µg/mL (≈ 0.212 µM). The MIC in the experiment with Microsporum gypseum amounted to 0.196 µg/mL (≈ 0.212 µM); in the experiment with Microsporum canis, 0.391 µg/mL (≈ 0.423 µM); with Epidennophyton floccosum it was 3.12 µg/mL (≈ 3.38 µM); in [3], 3.12 µg/mL (≈ 3.38 µM); against Trichophyton rubrum, 0.782 µg/mL (≈ 0.846 µM); against Fusarium oxysporum, 0.196 µg/mL (≈ 0.212 µM). Besides, the minimum inhibitory concentration (MIC) in the experiment with Rhizopus stolonifer was found to be 0.391 µg/mL (≈ 0.423 µM).
